Measurements taken from patent US20140322193A1, “Therapies for Disorders of the Cornea and Conjunctiva” (priority 2011, published 2014).
Entries after “also recorded” stand apart in the source; their conditions may differ.

Tests used:
mouse P2X7 receptor = molecular target: T1, mouse P2X7 receptor (Mus musculus, UniProt Q9Z1M0); conditions: British Journal of Pharmacology 2009 157:1203; cited from earlier work
T1 sequence (Q9Z1M0 1-595): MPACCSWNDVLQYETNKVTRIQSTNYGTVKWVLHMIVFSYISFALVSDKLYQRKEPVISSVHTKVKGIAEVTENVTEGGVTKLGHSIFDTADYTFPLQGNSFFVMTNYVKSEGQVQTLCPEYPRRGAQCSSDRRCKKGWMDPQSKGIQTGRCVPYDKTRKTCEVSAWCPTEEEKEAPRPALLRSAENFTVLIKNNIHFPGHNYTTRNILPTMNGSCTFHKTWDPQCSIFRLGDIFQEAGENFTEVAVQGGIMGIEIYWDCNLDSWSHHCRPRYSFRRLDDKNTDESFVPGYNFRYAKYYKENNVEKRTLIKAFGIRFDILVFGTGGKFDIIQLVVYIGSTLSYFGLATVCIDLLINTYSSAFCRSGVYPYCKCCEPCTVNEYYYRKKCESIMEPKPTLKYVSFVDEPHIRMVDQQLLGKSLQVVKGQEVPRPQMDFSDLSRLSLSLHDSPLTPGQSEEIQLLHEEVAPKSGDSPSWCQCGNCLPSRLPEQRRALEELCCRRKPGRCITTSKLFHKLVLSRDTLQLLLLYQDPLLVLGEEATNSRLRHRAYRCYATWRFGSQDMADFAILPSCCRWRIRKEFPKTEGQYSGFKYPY

CBA/J mice = test: Mouse BTX-B dry eye model, corneal fluorescein staining (corneal ulceration); format: in vivo; conditions: for Corneal fluorescein staining, MEAN, DAY 7: 7 days after BTX-B injection; for Corneal fluorescein staining, MEAN, DAY 7 / Corneal fluorescein staining, MEAN, DAY 14: eye drops twice daily in Refresh Celluvisc (A-438079 20 μM, BBG 20 μM, oxATP 300 μM), grade 0 to 4 scale; for Corneal fluorescein staining, MEAN, DAY 14: 14 days after BTX-B injection; for Corneal fluorescein staining, MEAN, DAY 0: day 0, prior to BTX-B injection (baseline), grade on 0 to 4 scale of Table 2; for Effect on corneal fluorescein staining (in words): days 7 and 14, chosen dose, b.i.d. eye drops
[1] = Preservation of 1 μM BBG ophthalmic composition in containers at 60° C. for 2 days; format: physicochemical; conditions: 1 μM BBG in BSS, PET, polypropylene, polyethylene and glass containers
Protocol: BSS Sterile Irrigating Solution is obtained from Alcon Laboratories, Ft. Worth, Tex. BBG is obtained from Sigma Aldrich, St. Louis, Mo. With moderate stirring in a homomixer, 856 mg of BBG is added to 1 liter of BSS at room temperature. The mixture is then stirred until the BBG is completely in solution. This solution is a 1 mM stock solution. One ml of the stock solution is then added to one liter of BSS to yield the ophthalmic composition, which is 1 μM BBG in BSS. The ophthalmic composition is filtered through a membrane filter (0.45 μm pore diameter, Millipore), filled in a 15 mL polyethylene terephthalate eye drop container, a polypropylene container, a polyethylene container, and a glass container and preserved at 60° C. for 2 days. The amount of BBG from each container is measured before and after preservation.

SMILES | IC50 (mouse P2X7 receptor) | Corneal fluorescein staining, MEAN, DAY 7 (CBA/J mice) | Corneal fluorescein staining, MEAN, DAY 14 (CBA/J mice) | Corneal fluorescein staining, MEAN, DAY 0 (CBA/J mice) | Effect on corneal fluorescein staining (in words) (CBA/J mice) | Degradation of active ingredient after preservation [1]
COc1ccc(CC(=O)NC(N=C(NC#N)Nc2cccc3ncccc23)C(C)(C)C)cc1OC (centres unmarked) [A-740003] | ~1000 nM | – | – | – | – | –
CCOc1ccc(Nc2ccc(/C(=C3C=C/C(=[N+](/CC)Cc4cccc(S(=O)(=O)[O-])c4)C=C/3C)c3ccc(N(CC)Cc4cccc(S(=O)(=O)[O-])c4)cc3C)cc2)cc1.[Na+] [BBG, Coomassie Brilliant Blue G] | – | 1.50 | 2.00 | 0.00 | did not attenuate fluorescein staining | little degradation
Nc1ncnc2c1ncn2[C@@H](C=O)O[C@@H](C=O)COP(=O)(O)OP(=O)(O)OP(=O)(O)O [oxATP, periodate oxidized ATP] | – | 0.00 | 0.00 | 0.00 | completely prevented the fluorescein staining; also recorded: remarkably effective in preventing pathology | –
Clc1cccc(-c2nnnn2Cc2cccnc2)c1Cl [A-438079] | – | 1.70 | 2.70 | 0.00 | did not attenuate fluorescein staining | –
